Test results: PMC9391358, “Crystal structures reveal catalytic and regulatory mechanisms of the dual-specificity ubiquitin/FAT10 E1 enzyme Uba6” (Nature Communications, 2022)

Assays:
Uba6 SCCH domain = molecular target: T1, Uba6 SCCH domain (Homo sapiens, UniProt A0AVT1); experiment: thermal shift assay (SYPRO Orange); format: binding; conditions: ~43 °C without ligand, 20 mM HEPES pH 7.5, 150 mM NaCl, 0.25 mM TCEP, E. coli-derived
T1 construct: standalone SCCH domain, residues 615-892, E. coli, SMT3 tag cleaved by ULP1
T1 sequence (A0AVT1 615-892): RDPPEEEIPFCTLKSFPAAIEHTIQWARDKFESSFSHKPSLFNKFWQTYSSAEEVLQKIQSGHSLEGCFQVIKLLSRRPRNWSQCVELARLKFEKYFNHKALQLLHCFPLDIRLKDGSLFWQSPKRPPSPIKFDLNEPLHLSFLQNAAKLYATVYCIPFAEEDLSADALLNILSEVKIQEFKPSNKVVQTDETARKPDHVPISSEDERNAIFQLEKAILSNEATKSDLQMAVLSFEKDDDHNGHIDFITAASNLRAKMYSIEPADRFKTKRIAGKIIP

Uba6 (Uba6_Apo; Uba6_WT) [1] = molecular target: T2, Uba6 (Uba6_Apo; Uba6_WT) (Homo sapiens, UniProt A0AVT1); experiment: isothermal titration calorimetry; format: binding
T2 construct: residues 37-1052; crystal from insect cells, His tag cleaved by TEV, C625A
T2 sequence (A0AVT1 37-1052): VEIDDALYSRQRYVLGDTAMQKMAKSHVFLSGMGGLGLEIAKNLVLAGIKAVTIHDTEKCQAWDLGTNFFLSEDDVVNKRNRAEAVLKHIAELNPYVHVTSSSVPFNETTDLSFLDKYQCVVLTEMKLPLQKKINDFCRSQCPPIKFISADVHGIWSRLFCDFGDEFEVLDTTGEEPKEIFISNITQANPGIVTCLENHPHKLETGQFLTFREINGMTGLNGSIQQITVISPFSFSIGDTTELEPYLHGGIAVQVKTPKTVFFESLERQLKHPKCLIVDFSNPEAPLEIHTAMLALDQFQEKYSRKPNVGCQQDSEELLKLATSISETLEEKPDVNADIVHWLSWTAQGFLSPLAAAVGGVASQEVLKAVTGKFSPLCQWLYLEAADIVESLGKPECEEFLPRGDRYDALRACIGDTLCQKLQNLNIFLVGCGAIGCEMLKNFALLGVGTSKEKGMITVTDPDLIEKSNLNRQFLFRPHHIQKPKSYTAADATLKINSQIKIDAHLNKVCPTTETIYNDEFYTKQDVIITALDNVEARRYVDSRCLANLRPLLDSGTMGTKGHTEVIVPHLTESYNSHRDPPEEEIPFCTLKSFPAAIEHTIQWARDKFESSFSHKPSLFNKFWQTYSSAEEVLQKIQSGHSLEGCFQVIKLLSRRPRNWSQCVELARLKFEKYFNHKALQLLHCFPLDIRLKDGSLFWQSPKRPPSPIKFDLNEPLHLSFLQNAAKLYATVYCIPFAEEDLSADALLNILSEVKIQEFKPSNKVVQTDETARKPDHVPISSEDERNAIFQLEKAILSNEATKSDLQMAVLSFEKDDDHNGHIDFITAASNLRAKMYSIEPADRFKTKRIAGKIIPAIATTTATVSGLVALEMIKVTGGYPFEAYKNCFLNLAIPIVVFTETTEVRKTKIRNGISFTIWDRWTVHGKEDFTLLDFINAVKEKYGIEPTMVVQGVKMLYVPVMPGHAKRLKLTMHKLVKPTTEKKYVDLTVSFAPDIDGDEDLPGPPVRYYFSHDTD

Uba1 (Uba1_WT) = molecular target: T3, Uba1 (Uba1_WT) (Homo sapiens, UniProt P22314); experiment: gel-based Uba1~Ub thioester formation, […] s; format: biochemical; conditions: ubiquitin 2.5 μM, 0-50 μM InsP6, 100 nM E1, 500 μM ATP, 5 mM MgCl2, pH 7.4, RT
T3 construct: E. coli-produced Uba1; a Uba1 SCCH domain (625-892) was also made and may be the ITC sample
T3 sequence (P22314 2-1058): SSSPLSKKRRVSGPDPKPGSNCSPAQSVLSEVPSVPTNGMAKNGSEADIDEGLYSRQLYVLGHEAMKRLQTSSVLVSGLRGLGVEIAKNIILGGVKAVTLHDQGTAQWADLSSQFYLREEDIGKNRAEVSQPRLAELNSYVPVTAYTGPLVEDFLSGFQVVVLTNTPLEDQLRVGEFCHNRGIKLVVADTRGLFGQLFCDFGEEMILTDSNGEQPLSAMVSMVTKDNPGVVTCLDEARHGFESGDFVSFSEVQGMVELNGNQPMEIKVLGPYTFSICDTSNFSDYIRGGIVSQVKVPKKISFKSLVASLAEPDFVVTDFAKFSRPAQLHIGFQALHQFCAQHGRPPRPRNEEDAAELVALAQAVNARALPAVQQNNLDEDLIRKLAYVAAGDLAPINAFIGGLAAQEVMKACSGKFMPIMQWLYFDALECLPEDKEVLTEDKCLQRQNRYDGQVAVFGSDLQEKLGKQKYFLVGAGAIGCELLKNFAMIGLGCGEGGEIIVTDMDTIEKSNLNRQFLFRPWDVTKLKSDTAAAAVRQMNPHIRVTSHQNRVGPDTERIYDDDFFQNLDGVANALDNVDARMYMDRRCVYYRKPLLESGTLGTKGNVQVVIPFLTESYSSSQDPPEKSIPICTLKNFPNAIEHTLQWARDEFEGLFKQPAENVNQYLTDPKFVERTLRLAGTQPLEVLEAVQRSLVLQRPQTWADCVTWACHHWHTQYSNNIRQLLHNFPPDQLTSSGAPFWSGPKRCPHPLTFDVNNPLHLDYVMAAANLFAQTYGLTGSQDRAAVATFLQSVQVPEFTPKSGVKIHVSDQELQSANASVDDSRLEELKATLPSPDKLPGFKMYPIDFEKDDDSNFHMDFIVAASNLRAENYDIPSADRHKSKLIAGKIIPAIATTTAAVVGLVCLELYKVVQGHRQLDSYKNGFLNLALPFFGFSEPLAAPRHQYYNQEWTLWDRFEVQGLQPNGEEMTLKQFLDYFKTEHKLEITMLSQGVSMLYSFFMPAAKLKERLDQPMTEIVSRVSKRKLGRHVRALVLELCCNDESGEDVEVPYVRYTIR

Uba6 (Uba6_Apo; Uba6_WT) [2] = molecular target: T2, Uba6 (Uba6_Apo; Uba6_WT); experiment: binding test, method not given

For `O=P(O)(O)O[C@@H]1[C@H](O)[C@H](O)[C@@H](OP(=O)(O)O)[C@H](OP(=O)(O)O)[C@H]1O` [InsP3, D-myo-Inositol 1,4,5-trisphosphate], the melting temperature (Uba6 SCCH domain; 100 μM InsP3) was 47 °C and the Kd (Uba6 (Uba6_Apo; Uba6_WT) [1]) was 248 nM.

Compound `O=P(O)(O)O[C@@H]1[C@@H](OP(=O)(O)O)[C@H](OP(=O)(O)O)[C@H](O)[C@H](OP(=O)(O)O)[C@H]1OP(=O)(O)O` [InsP5, D-myo-Inositol 1,3,4,5,6-pentakisphosphate] has a melting temperature (Uba6 SCCH domain; 100 μM InsP5) of 54 °C and a Kd (Uba6 (Uba6_Apo; Uba6_WT) [1]) of 73 nM.

In the case of `O=P(O)(O)O[C@H]1[C@H](OP(=O)(O)O)[C@@H](OP(=O)(O)O)[C@H](OP(=O)(O)O)[C@@H](OP(=O)(O)O)[C@H]1OP(=O)(O)O` [InsP6], the IC50 (Uba1 (Uba1_WT)) is reported as “InsP6 failed to inhibit Uba1 activation of Ub”.

With `O[C@H]1[C@H](O)[C@@H](O)[C@H](O)[C@@H](O)[C@H]1O` [myo-inositol] the “binding test, method not given” value (Uba6 (Uba6_Apo; Uba6_WT) [2]) was “myo-inositol (which lacks phosphates) fails to bind with Uba6 with detectable affinity”.
